“Also recorded” adds a separate entry of the source. Read-outs that look alike come from different tables or passages of the source.

The values that follow come from patent US20090131537A1, “Wound healing compositions” (priority 2007, published 2009).

The test system of assay [1] is HaCat keratinocytes. As to the kind of experiment: clonal growth assay of HaCat keratinocytes with growth factor/retinoid supplements. The assay is classed as cell-based, human. To be noted: for keratinocyte clonal growth: FIG. 1. As to the method: In the following experiment, the effect of on keratinocyte growth of adding single or multiple additives to standard medium (Std) was examined in a clonal growth assay performed according to the methods described previously (Wille et al., 1984). Briefly, a sterile […] plastic disposable Petri dish is seed with 5,000 high cloning HaCat cells, and refed complete (E^+I^+) serum free HECK 109 medium at incubated at 37° C. for 24 to 48 hours. The cells are washed with ice-cold Standard HECK 109 medium and refed various combinations of growth factors and retinyl acetate (RetAC).
FIG. 1 presents a photograph showing the results of incubating the HaCat seeded clonal assay dishes various supplements. The cells were fixed with 50% ethanol and stained with 0.2% crystal violet stain. This imparts a blue color to the cells. The stained dishes were then photographed.
In a second series of experiments the HaCat keratinocyte clonal growth after one day (D1) was compared for the combination: insulin plus retinyl acetate (Ins+Rac, D1) and the combination: EGF plus insulin (EI, D1). […] In these studies, insulin was also a necessary growth factor when used in combination with retinyl acetate. This may reflect the often-observed phenomenon of “carry-over” of bound EGF on cell surface growth factor receptor.

For assay [2], the system named is HaCat keratinocytes. The assay can be described thus: inhibition of retinoid-induced autocrine growth of HaCat keratinocytes by receptor tyrosine kinase inhibitor. The assay is classed as cell-based, human. To be noted: standard medium + 5 ug/ml insulin + 3×10^−8 M retinyl acetate, d1, FIG. 5. The method, then: In this experiment a selective inhibitor of receptor tyrosine protein phosphokinase was added to a culture of HaCat keratinocytes immediately prior to replacing the growth factor replete medium with HECK 110 serum free medium containing the combination insulin and retinyl acetate to induce autocrine growth. FIG. 5 presents a photograph showing three culture dishes with the following growth conditions: A. Standard growth medium (Std, d1); B. Standard growth medium containing the combination: 5 ug/ml insulin plus 3×10^−8M retinyl acetate (Ins+RAc, d1) and C. standard medium containing the combination: 5 ug/ml insulin, 3×10^−8M retinyl acetate and 2 uM of receptor tyrosine protein kinase inhibitor (Ins+Rac+RTKI, d1).

Assay [3] relates to HaCat keratinocytes. As to the kind of experiment: wound healing zone (WHZ) wound gap closure in confluent HaCat keratinocyte sheets. The assay is classed as cell-based, human. To be noted: for healing of WHZ: 24 hours, with insulin. The method, then: Keratinocytes were grown in a serum free medium supplemented with 5 ng/ml EGF and 5 ug/ml insulin and 0.2% fetal bovine serum and reseeded at 1×10^5 cells per cm^2 in to 35 mm 2 circular disposable Petri dishes and incubated at 37° C. until the cells completely filled the dish. These confluent cultures were then washed with ice-cold basal MCDB serum free medium and refed a serum free medium of the present invention whose composition is as shown in Table 1. A 2.5 mm linear wound was made across the midline of the diameter of the confluent culture with a 2.5 mm diameter heat-sealed tip of a 9 inch sterile Pasteur pipette. […] Wound of this diameter were routinely and reproducibly made by this technique and allow study of the effect of any agent that might have an effect on wound healing by measuring the delay in time it takes to fill in the wound gap of the WHZ.
FIG. 6 is a photograph of 9 culture dishes fixed with 50% ethanol and stained with 0.2% crystal violet 24 hours after forming the WHZ and incubated in the serum free medium of this invention containing varying doses of retinyl acetate. The experiment was performed in duplicate dishes. There is only one dish labeled 3E-5 as its duplicate was contaminated with mold and was eliminated. Control dishes were refed serum free medium supplemented with insulin but no retinyl acetate. All of the other dishes were r3efed serum free medium with insulin and increasing amount of retinyl acetate. The mi9d line WHZ was filled by epidermal keratinocyte migration and cell growth in all of the dishes except for cultures that had retinyl acetate at concentrations greater than 3×10^−6 M.
FIG. 7 show photomicrographs comparing wound closure in the WHZ for cultures of HaCat keratinocytes fixed and stained with crystal violet stain and photographed with bright field illumination.

Assay [4] deals with c-neu. The assay can be described thus: indirect immunofluorescence c-neu staining of keratinocytes propagated with retinoic acid. It counts as cell-based, human. To be noted: 5×10^−8 M all-trans retinoic acid. The text has this:
In order to determine whether retinoids like retinyl acetate induced autocrine secretion of an EGF-like protein growth factor that binds to an EGF-like cell surface receptor, we designed an experiment using the erbB antibody purchased from Oncogene Sciences (Manhasset, N.Y.) and performed indirect immunofluoresnce (IIF) cytochemistry on fixed normal human neonatal foreskin keratinocytes prepared according to previous studies (Wille et al., 1984). The technique of indirect immunofluorescene was performed according to the antibody manufacturers instructions for c-neu antibody. The neu oncogene was discovered after serial transformation of cells using rat neuroblastoma DNA. The isolated oncogene hybridizes with v-erbB and has 50% homology to the normal EGF receptor, a tyrosine kinase type enzyme protein. The proto-oncogene for neu is designated c-erb-2.
Normal human keratinocytes were propagated in a serum free medium composition containing 5×10.up.−8M all-trans retinoic acid, fixed and prepared for c-neu staining and detection by IIF as described in Experiment 1. […] We interpret this to mean that retinoid stimulation of autocrine growth proceeds through phosphorylation of an EGF-like receptor at points of cell-to-cell contact, which usually is only seen is post-mitotic suprabasal cells.

Assay [5] deals with adult human keratinocytes. To be noted: cited from earlier work.
In assay [6] the test system is normal human keratinocytes. To be noted: added to serum free growth factor supplemented medium; cited from earlier work.

In the case of “insulin: protein growth factor insulin, supplement of serum free medium”, in assay [1] (standard medium + insulin 5 ug/ml only (Std+Ins)), the keratinocyte clonal growth result is recorded as “less effective; also recorded: stimulated to grow”.

Regarding `CC(=O)OC/C=C(C)/C=C/C=C(C)/C=C/C1=C(C)CCCC1(C)C` (racemic) [retinyl acetate], the “keratinocyte clonal growth after one day (D1) compared with EGF plus insulin” value in assay [1] (5 ug/ml insulin + 3×10^−8 M retinyl acetate, D1, FIG. 2) is “stimulated keratinocyte growth as well as the combination (EI)”. Also, the keratinocyte clonal growth entry is listed as “little if any keratinocyte growth” in assay [1] (standard medium (Std) + 3×10^−8 M retinyl acetate alone); “sufficient to support the growth; also recorded: the best result was stimulation of keratinocyte growth” in assay [1] (standard medium + 5 ug/ml insulin and 3×10^−8 M retinyl acetate). Besides, the “HaCat growth, dish B versus dishes A and C” value in assay [2] is reported as “significant growth”. Besides, the “healing of WHZ” value in assay [3] (3×10^−5 M retinyl acetate) is on record as “incomplete healing; also recorded: no healing; also recorded: complete failure to fill in the WHZ gap”; in assay [3] (3×10^−6 M retinyl acetate) it was “incomplete healing”; in assay [3] (3×10^−7 M retinyl acetate), “complete wound healing”; in assay [3] (3×10^−8 M retinyl acetate), “complete healing”. In addition, the “healing in the WHZ” value in assay [3] (3×10^−7 M retinyl acetate) is recorded as about 100%.

`CC1=C(/C=C/C(C)=C/C=C/C(C)=C/C(=O)O)C(C)(C)CCC1` [all-trans retinoic acid]: in assay [4] (no alkaline phosphatase pre-treatment, FIG. 4A), the c-neu staining pattern result is “virtually all of the positive staining was strictly localized to focal adherence areas”. For the same compound, the c-neu phosphorylation result in assay [4] (with alkaline phosphatase pretreatment, FIG. 4B) is given as “induced a labile phosphorylation of c-neu only at the focal adherence sites”. For the same compound, the “effect on keratinocyte growth” value in assay [5] (concentrations lower than the optimal 0.5 ng/ml) is given as “ineffective”; in assay [5] (growth factor deficient medium, growth arrested cells, 0.1-2.5 ng/ml), “stimulated growth”. The “optimal concentration required to produce the growth stimulation” value in assay [5] (growth factor deficient medium) was 0.5 ng/mL. In addition, the “effect on keratinocyte proliferation” value in assay [5] (growth factor-supplemented medium, 0.1-2.5 ng/ml) is given as “inhibited proliferation”. Besides, the “rate of keratinocyte proliferation relative to maximal rate in growth factor supplemented medium” value in assay [5] (retinoid-stimulated cultures, growth factor deficient medium) was “approximately 35%”. For the same compound, the “effect on clonal growth” value in assay [6] is reported as “inhibits the clonal growth”.
